Data taken from US20140142023A1, “Pharmaceutical Composition for Treating A Metabolic Syndrome” (SANOFI, priority 2011, published 2014).
Ends that are not written are not given here.

How the values were obtained:
Type 2 diabetic patients = conditions: doses elevating plasma concentrations to approximately 3-4 fold physiological postprandial levels (Nauck 1997); cited from earlier work
db/db mice [1] = assay: Oral glucose tolerance test (OGTT) in db/db mice after 21 days; assay type: in vivo; conditions: after 21 days of treatment, 2 g/kg oral glucose, vs vehicle treated obese control
Experimental: (§1) Female db/db mice (BKS.Cg-m+/+Leprdb/J, age of 6 weeks) were treated with vehicle (PBS), 0.05 mg·kg^−1·day^−1 AVE0010, 0.75 mg·kg^−1·day^−1 recombinant human FGF-21 (SEQ ID NO: 2) or a combined dose of FGF-21 (SEQ ID NO: 2) and AVE0010 (0.75+0.05 mg·kg^−1·day^−1) subcutaneously once daily. Mice were fed ad libitum. Before the first treatment, after one week and 4 weeks blood glucose and HbA1c were measured under fed conditions. After 21 days of treatment an oral glucose tolerance test (OGTT) was initiated. Fasted mice were orally challenged with 2 g·kg^−1 glucose solution and blood glucose was measured at indicated time points.

db/db mice [2] = assay: Fed blood glucose in db/db mice (age of 6 weeks); assay type: in vivo; conditions: fed conditions, up to 4 weeks, AVE0010 0.05, FGF-21 0.75 mg/kg/day s.c. or combined
Experimental: as §1

Row | Substance | fasting hyperglycaemia (Type 2 diabetic patients) | glucose tolerance (OGTT) (db/db mice [1]) | blood glucose (db/db mice [2])
1 | GLP-1(7-27): bioactive GLP-1; probably GLP-1(7-37), SEQ ID NO: 3 (HAEGTFTSDVSSYLEGQAAKEFIAWLVKGRG; Fragment of human GLP-1 (7 to 37)) | fully normalizes | – | –
2 | GLP-1(7-36 amide): bioactive GLP-1, SEQ ID NO: 4 (HAEGTFTSDVSSYLEGQAAKEFIAWLVKGR-NH2) | fully normalizes | – | –
3 | AVE0010: GLP-1R agonist, SEQ ID NO: 9; sequence identical to lixisenatide SEQ ID NO: 8 [reference compound] | – | small improvement | inhibition of blood glucose increase
